Series [1] addresses T1, IKKβ (Homo sapiens, UniProt O14920).
T1 construct: purchased BPS Bioscience
T1 sequence (O14920 1-756): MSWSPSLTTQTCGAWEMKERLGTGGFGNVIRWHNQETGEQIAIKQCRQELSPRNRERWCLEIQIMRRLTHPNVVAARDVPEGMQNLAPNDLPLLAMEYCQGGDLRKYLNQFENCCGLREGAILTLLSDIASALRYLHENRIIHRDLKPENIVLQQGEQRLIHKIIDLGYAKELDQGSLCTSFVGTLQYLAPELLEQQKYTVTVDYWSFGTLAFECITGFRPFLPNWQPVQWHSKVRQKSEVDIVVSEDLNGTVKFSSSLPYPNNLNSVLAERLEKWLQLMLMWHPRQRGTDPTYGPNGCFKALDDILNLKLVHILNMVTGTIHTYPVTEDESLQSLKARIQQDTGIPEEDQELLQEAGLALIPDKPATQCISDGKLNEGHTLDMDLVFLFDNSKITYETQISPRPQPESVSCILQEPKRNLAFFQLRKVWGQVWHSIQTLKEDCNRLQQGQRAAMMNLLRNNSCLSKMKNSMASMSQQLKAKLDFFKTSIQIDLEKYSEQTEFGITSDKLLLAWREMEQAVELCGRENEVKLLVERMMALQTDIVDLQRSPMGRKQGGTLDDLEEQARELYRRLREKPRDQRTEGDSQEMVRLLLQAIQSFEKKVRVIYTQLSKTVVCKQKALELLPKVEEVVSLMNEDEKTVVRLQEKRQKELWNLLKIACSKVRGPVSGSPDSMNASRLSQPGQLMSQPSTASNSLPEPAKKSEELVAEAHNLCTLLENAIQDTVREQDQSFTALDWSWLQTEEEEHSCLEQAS
As to the kind of experiment: IKKβ inhibition assay (IKKβ Kinase Assay Kit). The format is biochemical. The method, then: IκB kinase beta (IKKβ) inhibition was determined using the IKKβ Kinase Assay Kit (BPS Bioscience, San Diego, California, USA). […] Kinase-Glo® MAX (Promega, #V6071, Madison, Wisconsin, USA) was used as the detection reagent, with an incubation time of 15 min. Blank values were subtracted from all measurements. Luminescence was measured with an integration time of 1 s using a Spark Microplate Reader (Tecan, Switzerland).

Series [2] can be described thus: UV–Vis spectroscopy in PBS (solubility). The format is physicochemical. As to conditions: PBS (PBS:DMSO 99:1), UV–Vis linearity of absorbance. The protocol:
All chemicals were sourced from commercial suppliers and utilized directly without any additional purification steps. Nuclear Magnetic Resonance (NMR) spectra were acquired on a 400-MHz spectrometer (JEOL, Tokyo, Japan) at 25°C. The chemical shifts (δ) are given in parts per million (ppm), with coupling constants (J) measured in hertz (Hz). The ^1H and ^13C NMR shifts are referenced to TMS, and solvent signals from Dimethyl Sulfoxide (DMSO)-d6 (2.50 ppm for ^1H and 39.52 ppm for ^13C) were used as references. Data analysis was performed using MestReNova software (version 14.2.1, Mestrelab Research S.L., Santiago de Compostela, SPAIN). Full assignment was performed using a combination of ^1H, ^13C, correlation spectroscopy (COSY), heteronuclear single quantum coherence (HSQC), and heteronuclear multiple bond correlation (HMBC) experiments. Mass spectrometry was conducted in positive ion mode using electrospray ionization (ESI^+) with a high-resolution hybrid Ion Trap-Orbitrap mass spectrometer (LTQ Orbitrap Velos, Thermo Scientific, Waltham, Massachusetts, USA), Supplementary Figures S21, S22. Detailed NMR spectra for all synthesized products are available in Supplementary Figures S12-S20. […] Characteristic absorption maxima were identified, and their dependence on concentration was evaluated.

Series [3] relates to Detroit 562. Description: MTT viability assay. The format is cell-based, human. The method, then:
(§1) A colorimetric 3-(4,5-dimethylthiazolyl)-2,5-diphenyltetrazolium bromide (MTT) cell metabolic activity assay was used to assess the cytotoxicity of complexes 3 and 4. The cells (described above) were cultured under standard conditions. Cells were seeded in 96-well plates at a density of 10,000 cells per well (200 μL) and allowed to grow for 24 h. The medium was then replaced with medium containing complex 3 or 4 at a concentration ranging from 0 to 200 μM, and the cells were incubated for an additional 24, 48, and 72 h. Subsequently, the medium was replaced with MTT solution, consisting of yellow tetrazolium dye 3-(4,5-dimethylthiazol-2-yl)-2,5-diphenyltetrazolium bromide (Sigma-Aldrich, Merck, Germany), and incubated for 2 h at 37°C. The dye was then removed, and the resulting purple formazan formed in viable cells was dissolved in DMSO, followed by shaking for 30 s. Absorbance was measured at 570 nm using an […] 200 PRO microplate reader (TECAN, Männedorf, Switzerland). All experiments were performed in quadruplicate and repeated three times.
(§2) The cell inhibitory concentration (IC) was calculated using the equation IC = (Acomplex3/complex4 well/mean Acontrol wells) × 100%. The half-maximal inhibitory concentration (IC50) was determined from dose–response curves using GraphPad Prism 10 (GraphPad Software Inc., La Jolla, CA, USA). The selectivity index toward cancer cells was calculated as a ratio of the average IC50 value for HGF to the IC50 value for the corresponding cancer cell line.

The test system of series [4] is HGF. Description: MTT viability assay. The format is cell-based, human. The protocol: as §1, §2
The test system of series [5] is FaDu. As to the kind of experiment: MTT viability assay. The format is cell-based, human. The protocol:
as §1, §2
In general terms: Formazan colour is commonly taken as a measure of viable cells.

Series [6] has as its target T2, IL-8 (Homo sapiens, UniProt P10145).
T2 construct: purchased PeproTech, Thermo Fisher Scientific
T2 sequence (P10145 21-99): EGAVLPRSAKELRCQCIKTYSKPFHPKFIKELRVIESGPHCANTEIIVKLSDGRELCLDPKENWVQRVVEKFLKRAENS
Description: Sandwich ELISA assay IL-8. As to conditions: for Decrease of IL-8 concentration: 500 pg/mL IL-8. The format is binding. The method, then: (§3) Human ELISA kits for IL-6, IL-6R, and IL-8 (Sigma-Aldrich, Merck, Germany) were used to quantify cytokine levels after treatment with complex 3 or 4. Briefly, 96-well plates precoated with specific antibodies were used to capture IL-6, IL-6R, and IL-8 from samples. […] Each sample was supplemented with 500 pg/mL of IL-6/IL-6R/IL-8. Positive control wells contained only the IL-6/IL-6R/IL-8 standard (PeproTech, Thermo Fisher Scientific, Waltham, Massachusetts, USA). […] After incubation, wells were washed, and biotinylated antihuman antibodies were added, followed by washing and addition of HRP-conjugated streptavidin. Finally, the TMB substrate was added to develop a color proportional to the cytokine concentration, and the reaction was stopped with the stop solution. Absorbance was measured at 450 nm using an […] 200 PRO microplate reader (TECAN, Switzerland).
(In general: In an ELISA, binding on a coated surface is turned into a signal by an enzyme label.)

The target of series [7] is T3, IL-6R (Homo sapiens, UniProt P08887).
T3 construct: purchased PeproTech, Thermo Fisher Scientific
As to the kind of experiment: ELISA assay IL-6R. The format is binding. Particulars: 500 pg/mL IL-6R. The method, then:
as §3

The mark [8] stands for this setting: Detroit 562, 24 h, read-out: IC50 24h.
The mark [9] stands for this setting: Detroit 562, 48 h, read-out: IC50 48h.
Where [10] appears, read: Detroit 562, 72 h, read-out: IC50 72h.

Read-outs that look alike come from different tables or passages of the source.

T3 sequence (P08887 20-468): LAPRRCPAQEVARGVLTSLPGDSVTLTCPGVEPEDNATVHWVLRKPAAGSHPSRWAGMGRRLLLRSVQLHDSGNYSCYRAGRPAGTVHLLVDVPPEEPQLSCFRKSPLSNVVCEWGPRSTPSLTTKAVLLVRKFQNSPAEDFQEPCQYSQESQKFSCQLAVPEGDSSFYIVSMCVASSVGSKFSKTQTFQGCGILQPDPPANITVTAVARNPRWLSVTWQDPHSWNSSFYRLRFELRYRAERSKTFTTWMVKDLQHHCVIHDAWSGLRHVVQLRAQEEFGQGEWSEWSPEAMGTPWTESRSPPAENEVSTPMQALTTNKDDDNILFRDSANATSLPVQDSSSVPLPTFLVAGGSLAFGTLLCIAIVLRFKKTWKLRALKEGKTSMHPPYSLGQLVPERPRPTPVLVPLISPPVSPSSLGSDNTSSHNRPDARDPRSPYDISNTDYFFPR

As to `Cc1ccc(C(C)C)cc1.Cc1ccc(C(C)C)cc1.O=C1C(=Cc2ccnc3ccccc23)COCC1=Cc1ccnc2ccccc12.[Cl][Ru][Cl].[Cl][Ru][Cl]` [Complex 3], the “Reduction of IKKβ activity” value in series [1] (8 μM) was “about 40%”. Further, the “Solubility in the buffered environment” value in series [2] is listed as “sufficient solubility”. Further, the IC50 stood at 12.3 ± 1.83 µM in series [3] (setting [8]); 3.9 ± 0.13 µM in series [3] (setting [9]); 3.5 ± 0.11 µM in series [3] (setting [10]); 20.8 ± 3.95 µM in series [4] (24 h, read-out: IC50 24h); 13 ± 0.27 µM in series [4] (48 h, read-out: IC50 48h); 9.15 ± 1.2 µM in series [4] (72 h, read-out: IC50 72h). For the same molecule, the half-inhibitory concentration (IC50) in series [5] (24 h, read-out: IC50 24h) was determined as 8.65 µM; in series [5] (48 h, read-out: IC50 48h), 5.75 ± 0.06 µM; in series [5] (72 h, read-out: IC50 72h), 3.85 ± 0.24 µM. Also, in series [6] (1 µM versus curcumin at 5 µM), the “IL-8 reduction relative to curcumin” value is “roughly 1.5 fold”. For the same molecule, the “Decrease of IL-8 concentration” value in series [6] (8 µM) is listed as “approximately 40%”. Also, the “Decrease in IL-6R concentration” value in series [7] (8 μM) is listed as “about 15%”.
As for `Cc1ccc(C(C)C)cc1.Cc1ccc(C(C)C)cc1.O=C1C(=Cc2cccnc2)CCC1=Cc1cccnc1.[Cl][Ru][Cl].[Cl][Ru][Cl]` [Complex 4], the “Inhibition of IKKβ activity” value in series [1] (1 μM) was “approximately 30%”. In addition, in series [2], the “Solubility in the buffered environment” value is given as “sufficient solubility”. Also, the concentration for half-maximal inhibition (IC50) turned out to be 21.7 ± 2.45 µM in series [3] (setting [8]); 42.2 ± 0.62 µM in series [3] (setting [9]); 18.1 ± 2.63 µM in series [3] (setting [10]); 28.2 ± 2.78 µM in series [4] (24 h, read-out: IC50 24h); 9 ± 1.68 µM in series [4] (48 h, read-out: IC50 48h); 13.9 ± 0.59 µM in series [4] (72 h, read-out: IC50 72h). In addition, the half-maximal inhibitory concentration (IC50) in series [5] (24 h, read-out: IC50 24h) came out at 25.9 ± 0.25 µM; in series [5] (48 h, read-out: IC50 48h), 17.1 ± 2.24 µM; in series [5] (72 h, read-out: IC50 72h) it was 21.6 ± 0.73 µM. In addition, the “Decrease of IL-8 concentration” value in series [6] (15 µM) is on record as “approximately 30%”. In series [7] (15 μM), the “Decrease in IL-6R concentration” value is given as “about 15%”.

By IC50 is commonly meant the midpoint of a concentration-inhibition curve.

These data come from PMC12754617, “Ruthenium-enhanced curcumin derivatives target tumor growth and cancer-related inflammation in head and neck cancer models” (Frontiers in Oncology, 2025).
